Each structure is given as a SMILES string.

30 compounds from patent publication US8796268B2, “Heteroaryls and uses thereof” (Millennium Pharmaceuticals, Inc., priority 2010, dated 2014) can be followed below.

What all share (assay type): biochemical
The target of one experiment is T1, Human PI3K gamma (Homo sapiens, UniProt P48736).
T1 construct: His (N); host or cells: SF9 insect cells (baculovirus)
The experiment is described as follows: Human PI3K gamma enzyme assay (HTRF). As to conditions: concentration not given, b1389 states 1.0 μM for PI3K δ and γ; for inhibition at 1 µM: read-out: p110 gamma Percent Inhibition. The method in brief: (§1)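 Compounds were mixed with 25 uM ATP, then with 3.5 uM di-C8 PI(4,5)P2 and His-tagged PI3K isoform (β 5.25 nM, δ 0.75 nM, γ 5 nM) at pH 7.00. After 30 min at room temperature, EDTA stopped the reaction and PIP3 was measured by HTRF over 1 h.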
In general terms: TR-FRET usually uses a lanthanide donor and a delayed reading to cut background.

Another experiment has as its target T2, Human PI3K beta (Homo sapiens, UniProt P42338).
T2 construct: His (N); host or cells: SF9 insect cells (baculovirus)
The experiment is described as follows: Human PI3K beta enzyme assay (HTRF). As to conditions: concentration not given, b1387 states 1.1 μM for PI3K α and β; for inhibition at 1.1 µM: read-out: p110 beta Percent Inhibition. The method, boiled down:
as §1

The next experiment addresses T3, Human PI3K alpha (Homo sapiens, UniProt P42336).
T3 construct: His (N); host or cells: SF9 insect cells (baculovirus)
Nature of the experiment: Human PI3K alpha enzyme assay (HTRF). To be noted: concentration not given, b1387 states 1.1 μM for PI3K α and β; for inhibition at 1.1 µM: read-out: p110 alpha Percent Inhibition.

The target of another experiment is T4, Human PI3K delta (Homo sapiens, UniProt O00329).
T4 construct: His (N); host or cells: SF9 insect cells (baculovirus)
Nature of the experiment: Human PI3K delta enzyme assay (HTRF). To be noted: concentration not given, b1389 states 1.0 μM for PI3K δ and γ; for inhibition at 1 µM: read-out: p110 delta Percent Inhibition. The method in brief:
as §1

T4 sequence (O00329 whole entry): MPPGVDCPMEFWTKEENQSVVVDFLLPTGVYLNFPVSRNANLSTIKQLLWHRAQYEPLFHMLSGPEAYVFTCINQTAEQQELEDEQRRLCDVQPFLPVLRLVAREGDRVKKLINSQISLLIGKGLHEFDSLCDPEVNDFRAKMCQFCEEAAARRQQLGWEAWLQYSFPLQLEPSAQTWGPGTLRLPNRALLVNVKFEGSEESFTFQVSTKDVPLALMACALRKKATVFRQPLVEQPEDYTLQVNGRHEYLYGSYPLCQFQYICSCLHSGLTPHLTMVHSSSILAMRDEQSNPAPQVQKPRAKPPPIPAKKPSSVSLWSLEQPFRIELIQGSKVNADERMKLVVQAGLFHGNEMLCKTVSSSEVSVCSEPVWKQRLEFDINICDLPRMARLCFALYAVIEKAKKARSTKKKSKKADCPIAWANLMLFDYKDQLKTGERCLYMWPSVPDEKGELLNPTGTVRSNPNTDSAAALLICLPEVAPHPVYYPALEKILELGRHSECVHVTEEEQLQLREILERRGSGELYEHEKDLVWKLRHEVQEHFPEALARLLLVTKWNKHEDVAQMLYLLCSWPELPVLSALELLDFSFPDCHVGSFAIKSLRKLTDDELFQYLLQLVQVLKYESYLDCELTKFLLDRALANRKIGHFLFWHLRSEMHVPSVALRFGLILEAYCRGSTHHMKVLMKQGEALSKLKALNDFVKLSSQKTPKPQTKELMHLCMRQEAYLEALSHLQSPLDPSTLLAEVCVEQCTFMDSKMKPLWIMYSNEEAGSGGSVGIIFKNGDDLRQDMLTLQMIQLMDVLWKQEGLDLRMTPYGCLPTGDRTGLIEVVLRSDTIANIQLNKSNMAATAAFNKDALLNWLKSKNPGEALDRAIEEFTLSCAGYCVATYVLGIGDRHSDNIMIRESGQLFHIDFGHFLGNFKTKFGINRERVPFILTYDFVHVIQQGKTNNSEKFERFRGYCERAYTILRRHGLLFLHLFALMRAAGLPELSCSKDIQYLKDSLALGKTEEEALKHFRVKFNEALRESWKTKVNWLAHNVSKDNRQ
T4 sequence (P27986 whole entry partner): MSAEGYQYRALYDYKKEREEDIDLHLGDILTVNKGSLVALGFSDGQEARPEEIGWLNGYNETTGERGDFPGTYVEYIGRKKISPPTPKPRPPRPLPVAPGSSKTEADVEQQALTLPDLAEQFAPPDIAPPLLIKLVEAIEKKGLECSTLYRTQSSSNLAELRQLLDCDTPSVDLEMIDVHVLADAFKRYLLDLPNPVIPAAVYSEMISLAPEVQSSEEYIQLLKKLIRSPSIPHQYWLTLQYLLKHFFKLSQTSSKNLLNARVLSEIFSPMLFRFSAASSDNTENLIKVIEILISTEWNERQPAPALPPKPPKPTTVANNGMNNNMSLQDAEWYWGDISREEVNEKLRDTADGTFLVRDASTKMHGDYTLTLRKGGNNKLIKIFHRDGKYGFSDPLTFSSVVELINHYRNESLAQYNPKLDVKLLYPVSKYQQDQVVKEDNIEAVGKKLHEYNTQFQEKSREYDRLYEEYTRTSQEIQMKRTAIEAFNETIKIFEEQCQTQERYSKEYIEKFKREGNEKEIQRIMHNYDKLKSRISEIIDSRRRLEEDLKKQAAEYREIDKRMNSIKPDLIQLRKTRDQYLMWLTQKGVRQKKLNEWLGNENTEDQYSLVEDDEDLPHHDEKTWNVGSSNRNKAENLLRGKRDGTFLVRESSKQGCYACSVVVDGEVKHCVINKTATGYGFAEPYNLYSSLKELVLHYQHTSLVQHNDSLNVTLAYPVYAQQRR
T2 sequence (P42338 whole entry): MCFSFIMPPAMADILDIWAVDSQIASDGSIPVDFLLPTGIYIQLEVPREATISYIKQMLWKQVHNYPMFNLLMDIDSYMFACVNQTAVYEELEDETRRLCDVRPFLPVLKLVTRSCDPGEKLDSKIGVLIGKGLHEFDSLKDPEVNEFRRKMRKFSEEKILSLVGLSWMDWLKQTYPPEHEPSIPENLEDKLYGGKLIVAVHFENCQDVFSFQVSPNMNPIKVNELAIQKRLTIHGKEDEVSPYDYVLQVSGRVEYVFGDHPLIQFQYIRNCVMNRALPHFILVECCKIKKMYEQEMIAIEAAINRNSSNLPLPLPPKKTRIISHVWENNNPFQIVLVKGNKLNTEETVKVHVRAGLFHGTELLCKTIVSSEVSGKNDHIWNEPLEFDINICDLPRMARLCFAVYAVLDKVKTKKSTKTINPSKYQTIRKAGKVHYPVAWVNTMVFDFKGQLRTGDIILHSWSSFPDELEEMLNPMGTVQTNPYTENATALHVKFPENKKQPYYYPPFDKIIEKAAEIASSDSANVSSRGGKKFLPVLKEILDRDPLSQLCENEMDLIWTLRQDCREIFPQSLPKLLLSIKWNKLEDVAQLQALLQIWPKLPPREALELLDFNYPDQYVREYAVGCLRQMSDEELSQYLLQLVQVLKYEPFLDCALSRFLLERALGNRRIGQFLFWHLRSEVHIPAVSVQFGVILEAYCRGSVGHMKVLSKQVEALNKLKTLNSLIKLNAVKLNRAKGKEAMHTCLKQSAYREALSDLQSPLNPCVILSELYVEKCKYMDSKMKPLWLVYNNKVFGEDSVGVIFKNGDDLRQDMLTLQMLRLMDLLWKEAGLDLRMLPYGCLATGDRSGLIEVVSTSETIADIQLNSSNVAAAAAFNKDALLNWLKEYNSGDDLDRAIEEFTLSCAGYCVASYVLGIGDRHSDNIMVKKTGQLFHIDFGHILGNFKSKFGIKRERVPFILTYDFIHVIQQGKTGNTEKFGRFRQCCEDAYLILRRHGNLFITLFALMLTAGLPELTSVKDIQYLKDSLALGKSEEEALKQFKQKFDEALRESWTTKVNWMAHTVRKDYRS
T2 sequence (P27986 whole entry partner): as the sequence (P27986 whole entry partner) above
T3 sequence (P42336 whole entry): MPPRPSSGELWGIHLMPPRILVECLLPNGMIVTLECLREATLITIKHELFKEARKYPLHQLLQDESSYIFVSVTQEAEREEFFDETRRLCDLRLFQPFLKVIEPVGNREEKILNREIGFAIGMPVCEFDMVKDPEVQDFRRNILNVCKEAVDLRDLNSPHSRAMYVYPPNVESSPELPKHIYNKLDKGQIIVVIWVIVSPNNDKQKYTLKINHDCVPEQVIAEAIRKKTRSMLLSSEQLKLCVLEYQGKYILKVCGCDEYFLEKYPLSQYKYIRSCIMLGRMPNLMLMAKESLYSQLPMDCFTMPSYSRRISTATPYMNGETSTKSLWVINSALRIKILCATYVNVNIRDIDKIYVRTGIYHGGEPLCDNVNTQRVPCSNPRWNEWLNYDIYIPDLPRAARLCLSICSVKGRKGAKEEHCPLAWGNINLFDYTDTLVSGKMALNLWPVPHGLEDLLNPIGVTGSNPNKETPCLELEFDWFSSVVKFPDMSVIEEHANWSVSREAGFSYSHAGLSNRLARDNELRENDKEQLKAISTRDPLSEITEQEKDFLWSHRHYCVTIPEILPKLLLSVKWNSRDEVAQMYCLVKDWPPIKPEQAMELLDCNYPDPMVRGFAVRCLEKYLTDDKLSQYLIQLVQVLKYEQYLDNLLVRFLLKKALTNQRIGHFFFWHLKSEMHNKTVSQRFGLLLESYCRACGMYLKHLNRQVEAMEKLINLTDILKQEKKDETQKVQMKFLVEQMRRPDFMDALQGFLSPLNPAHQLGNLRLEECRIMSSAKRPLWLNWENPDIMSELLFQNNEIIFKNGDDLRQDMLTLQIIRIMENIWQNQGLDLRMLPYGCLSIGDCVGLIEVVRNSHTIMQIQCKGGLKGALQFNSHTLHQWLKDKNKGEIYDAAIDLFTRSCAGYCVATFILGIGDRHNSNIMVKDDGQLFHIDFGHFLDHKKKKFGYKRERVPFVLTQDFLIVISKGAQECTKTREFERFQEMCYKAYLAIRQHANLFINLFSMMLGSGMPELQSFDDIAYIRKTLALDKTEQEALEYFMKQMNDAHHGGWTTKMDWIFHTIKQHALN
T3 sequence (P27986 whole entry partner): as the sequence (P27986 whole entry partner) above
T1 sequence (P48736 whole entry): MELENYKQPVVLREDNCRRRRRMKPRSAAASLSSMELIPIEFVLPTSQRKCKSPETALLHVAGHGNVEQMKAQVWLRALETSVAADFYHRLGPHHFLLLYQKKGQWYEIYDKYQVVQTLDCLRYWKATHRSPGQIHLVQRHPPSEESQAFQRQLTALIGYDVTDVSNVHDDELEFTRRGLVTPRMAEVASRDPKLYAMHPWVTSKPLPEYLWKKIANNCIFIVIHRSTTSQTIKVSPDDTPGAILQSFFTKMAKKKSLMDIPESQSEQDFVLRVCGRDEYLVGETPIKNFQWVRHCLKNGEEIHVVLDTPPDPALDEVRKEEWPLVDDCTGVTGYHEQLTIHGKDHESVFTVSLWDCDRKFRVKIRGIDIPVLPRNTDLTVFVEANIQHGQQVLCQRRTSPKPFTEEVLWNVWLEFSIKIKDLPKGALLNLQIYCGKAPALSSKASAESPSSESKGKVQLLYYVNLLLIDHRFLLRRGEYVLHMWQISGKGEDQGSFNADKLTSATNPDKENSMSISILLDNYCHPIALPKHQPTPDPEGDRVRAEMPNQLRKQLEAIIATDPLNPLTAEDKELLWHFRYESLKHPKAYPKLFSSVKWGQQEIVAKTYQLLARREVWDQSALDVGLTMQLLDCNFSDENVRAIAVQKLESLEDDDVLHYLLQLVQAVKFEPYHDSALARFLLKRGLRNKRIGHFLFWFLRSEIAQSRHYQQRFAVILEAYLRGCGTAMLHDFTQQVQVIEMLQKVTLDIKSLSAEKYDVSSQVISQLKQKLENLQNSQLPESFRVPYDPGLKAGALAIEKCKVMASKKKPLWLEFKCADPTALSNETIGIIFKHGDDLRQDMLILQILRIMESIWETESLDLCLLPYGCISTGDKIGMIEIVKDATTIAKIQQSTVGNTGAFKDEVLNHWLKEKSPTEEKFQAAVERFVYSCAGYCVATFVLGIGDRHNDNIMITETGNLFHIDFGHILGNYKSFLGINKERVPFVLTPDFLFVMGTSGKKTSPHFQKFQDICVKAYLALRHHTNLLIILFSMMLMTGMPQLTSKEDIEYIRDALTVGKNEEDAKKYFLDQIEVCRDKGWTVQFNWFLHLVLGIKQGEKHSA

In the case of `CN[C@H]1CCN(C(c2ccc(Cl)cc2)c2cc(-c3ccnc(NC(C)=O)c3)sc2-c2nnc[nH]2)C1` (stereo partly drawn) [Compound 163], the inhibition at 1 µM on Human PI3K gamma is 25%; on Human PI3K delta it was 106%. Also, the inhibition at 1.1 µM was determined as 110% on Human PI3K beta and 97% on Human PI3K alpha.

As for `CC(=O)Nc1cc(-c2cc(C(c3ccc(Cl)cc3)N3CC[C@H](O)C3)c(-c3nnc[nH]3)s2)ccn1` (stereo partly drawn) [Compound 164], the inhibition at 1 µM on Human PI3K gamma amounted to 44%; on Human PI3K delta it was 112%. In addition, the inhibition at 1.1 µM was determined as 107% on Human PI3K beta and 100% on Human PI3K alpha.

With `CC(=O)Nc1cc(-c2sc(-c3nnc[nH]3)c(C(O)c3ccc(Cl)cc3)c2C#N)ccn1` (stereo not drawn) [Compound 165], the inhibition at 1 µM at Human PI3K gamma is 14%; on Human PI3K delta, 87%. For the same compound, the inhibition at 1.1 µM came out at 77% at Human PI3K beta and 64% on Human PI3K alpha.

For `CC(=O)Nc1cc(-c2sc(-c3nnc[nH]3)c(Sc3ccc(Cl)cc3)c2C#N)ccn1` [Compound 166], the inhibition at 1 µM is 3% at Human PI3K gamma and 85% on Human PI3K delta. For the same compound, the inhibition at 1.1 µM came out at 82% at Human PI3K beta and 92% on Human PI3K alpha.

Regarding `CC(=O)Nc1cc(-c2cc(C(c3ccc(Cl)cc3)n3ccnc3)c(-c3nnc[nH]3)s2)ccn1` (stereo not drawn) [Compound 167], the inhibition at 1 µM on Human PI3K gamma was 26%; at Human PI3K delta, 110%. Besides, the inhibition at 1.1 µM at Human PI3K beta stood at 103%; on Human PI3K alpha, 105%.

Take `COc1cc(C(O)c2cc(-c3ccnnc3)sc2-c2nnc[nH]2)c(F)cc1Cl` (stereo not drawn) [Compound 168]: the “p110 gamma Percent Inhibition” value at Human PI3K gamma turned out to be 58%. The “p110 beta Percent Inhibition” value at Human PI3K beta turned out to be 107%. The “p110 alpha Percent Inhibition” value on Human PI3K alpha is recorded as 23%. Moreover, the “p110 delta Percent Inhibition” value at Human PI3K delta is 110%.

Regarding `OC(c1cc(-c2ccncc2)sc1-c1nnc[nH]1)c1cccc2nccnc12` (stereo not drawn) [Compound 169], the inhibition at 1 µM on Human PI3K gamma came out at 7%; on Human PI3K delta, 65%. Moreover, the values for the inhibition at 1.1 µM on Human PI3K beta and on Human PI3K alpha were 89% and 65%, respectively.

As for `CNC1CN(C(c2ccc(Cl)cc2)c2cc(-c3ccnc(NC(C)=O)c3)sc2-c2nnc[nH]2)C1` (stereo not drawn) [Compound 170], the inhibition at 1 µM at Human PI3K gamma worked out at 26%; on Human PI3K delta, 105%. For the same compound, the values for the inhibition at 1.1 µM on Human PI3K beta and at Human PI3K alpha were 106% and 84%, respectively.

As to `OC(c1ccc2ccccc2n1)c1cc(-c2ccncc2)sc1-c1nnc[nH]1` (stereo not drawn) [Compound 171], the inhibition at 1 µM on Human PI3K gamma was found to be 60%; on Human PI3K delta it was 99%. Further, the inhibition at 1.1 µM on Human PI3K beta was 106%; at Human PI3K alpha, 59%.

Take `N#Cc1c(-c2ccnnc2)sc(-c2nnc[nH]2)c1C(c1ccc2ccccc2c1)N1CCNCC1` (stereo not drawn) [Compound 172]: the results for the inhibition at 1 µM at Human PI3K gamma and on Human PI3K delta were 6% and 60%, respectively. Further, the inhibition at 1.1 µM on Human PI3K beta came out at 101%; on Human PI3K alpha it was 28%.

As for `CC(=O)Nc1cc(-c2cc(C(OCC3CCCC3)c3ccc(Cl)cc3)c(-c3nnc[nH]3)s2)ccn1` (stereo not drawn) [Compound 173], the results for the inhibition at 1 µM on Human PI3K gamma and on Human PI3K delta were 3% and 83%, respectively. Also, the inhibition at 1.1 µM on Human PI3K beta is 67%; on Human PI3K alpha it was 69%.

As to `Cc1ccc(C(O)c2cc(-c3ccncc3)sc2-c2nnc[nH]2)cc1C` (stereo not drawn) [Compound 174], the values for the inhibition at 1 µM at Human PI3K gamma and at Human PI3K delta were 8% and 59%, respectively. The inhibition at 1.1 µM came out at 70% on Human PI3K beta and 15% on Human PI3K alpha.

Take `OC(c1cc(-c2ccncc2)sc1-c1nnc[nH]1)c1ccnc2ccccc12` (stereo not drawn) [Compound 175]: the inhibition at 1 µM on Human PI3K gamma was found to be 7%; at Human PI3K delta it was 36%. Moreover, the inhibition at 1.1 µM at Human PI3K beta amounted to 85%; on Human PI3K alpha it was 19%.

As to `CC(=O)Nc1cc(-c2nc(Cc3ccc4ccccc4c3)c(C(=O)O)s2)ccn1` [Compound 177, 2-(2-acetamidopyridin-4-yl)-4-(naphthalen-2-ylmethyl)thiazole-5-carboxylic acid], the values for the inhibition at 1 µM on Human PI3K gamma and on Human PI3K delta were 34% and 106%, respectively. The inhibition at 1.1 µM at Human PI3K beta was found to be 100%; on Human PI3K alpha, 79%.

`Oc1cc(-c2sc(-c3ccncc3)nc2Cc2ccc(Cl)cc2)[nH]n1` [Compound 178, 5-(4-(4-chlorobenzyl)-2-(pyridin-4-yl)thiazol-5-yl)-1H-pyrazol-3-ol]: the values for the inhibition at 1 µM at Human PI3K gamma and on Human PI3K delta were 38% and 88%, respectively. For the same compound, the inhibition at 1.1 µM on Human PI3K beta was 109%; on Human PI3K alpha, 20%.

Consider `COC(=O)Nc1cc(-c2sc(-c3nnc[nH]3)c(Cc3ccc4ccccc4c3)c2C#N)ccn1` [Compound 179], for which the figures for the inhibition at 1 µM on Human PI3K gamma and on Human PI3K delta were 5% and 89%, respectively. Besides, the inhibition at 1.1 µM is 60% at Human PI3K beta and 29% at Human PI3K alpha.

`COC(=O)Nc1cc(-c2sc(C(=O)O)c(Cc3ccc4ccccc4c3)c2C#N)ccn1` [Compound 180]: the inhibition at 1 µM at Human PI3K gamma amounted to 21%; at Human PI3K delta, 102%. Moreover, the inhibition at 1.1 µM on Human PI3K beta was 102%; on Human PI3K alpha, 60%.

Take `CC(=O)Nc1cc(-c2cc(C(c3ccc(Cl)cc3)N3CC(N(C)C)C3)c(-c3nnc[nH]3)s2)ccn1` (stereo not drawn) [Compound 181, N-{4-[4-{(4-chlorophenyl)[3-(dimethylamino)azetidin-1-yl]-methyl}-5-(4H-1,2,4-triazol-3-yl)-2-thienyl]pyridin-2-yl}acetamide]: the “p110 gamma Percent Inhibition” value on Human PI3K gamma is reported as 35%. Also, the “p110 beta Percent Inhibition” value at Human PI3K beta is listed as 91%. For the same compound, the “p110 alpha Percent Inhibition” value on Human PI3K alpha is on record as 85%. In addition, on Human PI3K delta, the “p110 delta Percent Inhibition” value is given as 108%.

In the case of `CC(=O)Nc1cc(-c2cc(C(OCC3CNC3)c3ccc(Cl)cc3)c(-c3nnc[nH]3)s2)ccn1` (stereo not drawn) [Compound 182], the inhibition at 1 µM at Human PI3K gamma stood at 45%; on Human PI3K delta, 107%. Further, the inhibition at 1.1 µM on Human PI3K beta is 100%; on Human PI3K alpha it was 83%.

As for `Cc1n[nH]c(C)c1-c1sc(-c2ccncc2)nc1Cc1ccc(Cl)cc1` [Compound 183], the figures for the inhibition at 1 µM on Human PI3K gamma and at Human PI3K delta were 3% and 9%, respectively. Moreover, the results for the inhibition at 1.1 µM on Human PI3K beta and on Human PI3K alpha were 16% and -2%, respectively.

Take `CC(=O)Nc1cc(-c2cc(C(NCCN(C)C)c3ccc(Cl)cc3)c(-c3nnc[nH]3)s2)ccn1` (stereo not drawn) [Compound 184]: the inhibition at 1 µM at Human PI3K gamma was found to be 16%; at Human PI3K delta, 112%. In addition, the inhibition at 1.1 µM on Human PI3K beta is 112%; on Human PI3K alpha it was 76%.

`CN(C)C(c1ccc(Cl)cc1)c1cc(-c2ccnc(N)c2)sc1-c1nnc[nH]1` (stereo not drawn) [Compound 185]: the inhibition at 1 µM was found to be 9% at Human PI3K gamma and 50% at Human PI3K delta. Besides, the inhibition at 1.1 µM is 97% on Human PI3K beta and 16% at Human PI3K alpha.

With `COc1cc(C(O)c2cc(-c3ccncc3)sc2-c2ncn[nH]2)c(F)cc1Cl` (stereo not drawn) [Compound 186], the results for the inhibition at 1 µM on Human PI3K gamma and on Human PI3K delta were 65% and 92%, respectively. The inhibition at 1.1 µM at Human PI3K beta was found to be 109%; on Human PI3K alpha it was 68%.

As for `OC(c1ccc(F)cc1Cl)c1cc(-c2ccncc2)sc1-c1nnc[nH]1` (stereo not drawn) [Compound 187], the inhibition at 1 µM on Human PI3K gamma is 25%; at Human PI3K delta it was 77%. For the same compound, the inhibition at 1.1 µM at Human PI3K beta was 95%; on Human PI3K alpha, 32%.

With `Cc1ccc(F)c(C(O)c2cc(-c3ccncc3)sc2-c2nnc[nH]2)c1` (stereo not drawn) [Compound 188], the inhibition at 1 µM at Human PI3K gamma is 36%; on Human PI3K delta, 82%. For the same compound, the figures for the inhibition at 1.1 µM at Human PI3K beta and at Human PI3K alpha were 94% and 47%, respectively.

As to `Clc1ccc(Cc2nc(-c3ccncc3)sc2-c2nnn[nH]2)cc1` [Compound 190, 4-(4-chlorobenzyl)-2-(pyridin-4-yl)-5-(1H-tetrazol-5-yl)thiazole], the inhibition at 1 µM at Human PI3K gamma is 7%; on Human PI3K delta, 33%. Besides, the inhibition at 1.1 µM at Human PI3K beta is 60%; on Human PI3K alpha it was 3%.

`COc1ccc(C(O)c2cc(-c3ccncc3)sc2-c2nnc[nH]2)cc1Cl` (stereo not drawn) [Compound 191]: the inhibition at 1 µM was found to be 30% at Human PI3K gamma and 90% at Human PI3K delta. The inhibition at 1.1 µM on Human PI3K beta was found to be 97%; at Human PI3K alpha, 26%.

Turning to `OC(c1ccccc1C(F)(F)F)c1cc(-c2ccncc2)sc1-c1nnc[nH]1` (stereo not drawn) [Compound 193], the inhibition at 1 µM at Human PI3K gamma is 13%; on Human PI3K delta, 46%. For the same compound, the inhibition at 1.1 µM on Human PI3K beta was found to be 69%; at Human PI3K alpha, 26%.

As for `COC(=O)Nc1cc(-c2sc(-c3nnc[nH]3)c(C(O)c3ccc(Cl)cc3)c2C#N)ccn1` (stereo not drawn) [Compound 195, Methyl {4-[4-[(4-chlorophenyl)(hydroxy)methyl]-3-cyano-5-(4H-1,2,4-triazol-3-yl)-2-thienyl]pyridin-2-yl}carbamate], the results for the inhibition at 1 µM at Human PI3K gamma and on Human PI3K delta were 8% and 88%, respectively. For the same compound, the figures for the inhibition at 1.1 µM on Human PI3K beta and at Human PI3K alpha were 74% and 52%, respectively.

For `CC(=O)Nc1cc(-c2cc(C(c3ccc(Cl)cc3)N3CCN(C(C)=O)CC3)c(-c3nnc[nH]3)s2)ccn1` (stereo not drawn) [Compound 196], the inhibition at 1 µM at Human PI3K gamma was 12%; on Human PI3K delta it was 105%. Besides, the inhibition at 1.1 µM at Human PI3K beta is 91%; at Human PI3K alpha, 69%.
